The results in this text go back to PubChem BioAssay AID2060509 (Molecular Pharmacology Branch, DTP, NCI, 2025).

SMILES strings stand for the structures. pIC50: −log10 of the molar value. Where “and” joins values, the source holds several entries; their conditions need not be identical. Identical values can stand only once.

The test system of the assay is 485176-168-R4-J1-PDC spheroids with HUVEC/MSC, viability. Nature of the assay: Anticancer human tumor 485176-168-R4-J1-PDC patient-derived pancreatic adenocarcinoma cell line growth inhibition [GQUAD]. As to conditions: for viability, T/C: stronger effect = lower value. An excerpt:
DNA G-quadruplex Stabilizer Agents in Combinations in Complex Spheroids
A high-throughput screen of multi-cell type tumor spheroids was designed to identify active combinations of DNA G-quadruplex stabilizer agents and targeted small molecules. Complex spheroids include a stromal component modeled by human endothelial cells (HUVEC) and fibroblasts modeled by human mesenchymal stem cells (MSCs). The concentration ranges selected for each drug and investigational agent were based upon clinically achievable concentrations if the clinical Cmax of the agent was known.
Compounds. The drugs and investigational agents: pidnarulex (CX-5461; NSC782164), APTO-253 (NSC789042), BRACO-19 (NSC847499), peposertib (NSC802822), ceralasertib (NSC780249), elimusertib (NSC800525), camonsertib (NSC841442), AZD-1390 (NSC803789), olaparib (NSC753686), talazoparib (NSC767125), ART-558 (NSC835418), sotorasib (NSC818433), MRTX-1133 (NSC836407), SN-38 (NSC673596), topotecan (NSC609699), etoposide (NSC141540), doxorubicin (NSC123127), gemcitabine (NSC613327), 5-fluorouracil (NSC19893), paclitaxel (NSC125973), vemurafenib (NSC761431), panobinostat (NSC761190), R-306465 (JNJ-16241199; NSC773264), adavosertib (NSC754352), TP-3654 (NSC805149), carboplatin (NSC241240), KSQ-4279 (NSC840948), and staurosporine (NSC755774) were obtained from the National Cancer Institute (NCI) Developmental Therapeutics Program Chemical Repository (34). The FDA-approved anticancer drug set is available from the NCI Developmental Therapeutics Program. […] The stock solutions were prepared in dimethyl sulfoxide (DMSO, Sigma-Aldrich, St. Louis, MO, cat. D2650) at 800-fold the tested concentration and stored at -70 degrees C prior to their use. All drugs and investigational agents were tested over a range starting from a high concentration at or near the clinical Cmax and decreasing in half-log increments. If the clinical Cmax for an agent had not been determined, the highest concentration tested was 10 microM.
2.3 Cell Culture. All cells were maintained in an incubator at 37 degrees C and 5% CO2 with 95% humidity. The PDC lines were cultured according to standard operating procedures established by the NCI PDMR. All PDCs were thawed and cultured in Matrigel-coated flasks prepared with a working solution of 1X Ham's F-12 nutrient mix, without supplementation (Invitrogen, cat. 11765054), 100 U/mL penicillin-streptomycin (Invitrogen, cat. 15140122), and 2.5% Matrigel (Corning Inc., cat. 354248) for the first three passages. The 857933-349-R-J2-PDC line was cultured in 6C/Colon 1B media, which includes advanced DMEM/F-12 (Thermo Fisher Scientific, cat. 12634028), 10 mM HEPES (Thermo Fisher Scientific, cat. 15630080), 1X GlutaMAX supplement (Thermo Fisher Scientific, cat. 35050061), 0.1 mg/mL primocin (InvivoGen, cat. ant-pm-2), 10% defined fetal bovine serum, heat inactivated (HyClone Laboratories Inc., cat. SH30070.03HI), 50% L-WRN conditioned media (ATCC, cat. CRL-3276), 1.25 mM N-Acetyl-L-cysteine (Sigma-Aldrich, cat. A9165), 10 mM nicotinamide (Sigma-Aldrich, cat. N0636), 1X B-27 supplement (Thermo Fisher Scientific, cat. 17504044), 1X N-2 supplement (Thermo Fisher Scientific, cat. 17502048), 10 microM Y-27632 dihydrochloride (Tocris Bioscience, cat. 1254), and 50 ng/mL human EGF recombinant protein (Thermo Fisher Scientific, cat. PHG0311). The 485176-168-R4-J1-PDC line was cultured in Panc media, which includes all 6C/Colon 1B media components plus 100 ng/mL human FGF-10 (Thermo Fisher Scientific, cat. 100-26), 500 nM SB-431542 (Selleckchem, cat. S1067), and gastrin (Tocris, cat. 3006).
[…]
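Note: spheroids exposed to compounds for seven days before readout.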
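Throughout, for viability, T/C: percent viability relative to DMSO vehicle control wells as 100%.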

Broadly, the pIC50 is the IC50 on a negative log10 scale, so that one unit is a factor of ten. Broadly, the viability, T/C is the ratio of treated to control. For the compound `O=C(NO)c1cnc(N2CCN(S(=O)(=O)c3ccc4ccccc4c3)CC2)nc1` + CN(C)c1ccc(Nc2c3ccc(NC(=O)CCN4CCCC4)cc3nc3cc(NC(=O)CCN4CCCC4)ccc23)cc1, the pIC50 is 6.31 (curve of first compound, second compound 0.0316 µM); 6.33 (curve of first compound, second compound 0.1 µM); 6.30 (curve of first compound, second compound 0.316 µM); 6.34 (curve of first compound, second compound 1 µM); 6.27 (curve of first compound, second compound 3.16 µM); 6.42 (curve of first compound, second compound 10 µM). The viability, T/C was 92.8% (second compound 0.0316 µM, first compound 0.0316 µM); 84.5% (second compound 0.0316 µM, first compound 0.1 µM); 74.8% (second compound 0.0316 µM, first compound 0.316 µM); 10.4% (second compound 0.0316 µM, first compound 1 µM); 0.23% (second compound 0.0316 µM, first compound 3.16 µM); 0.27% (second compound 0.0316 µM, first compound 10 µM). Moreover, the viability, T/C (second compound 0.1 µM, first compound 0.0316 µM) is 85.5%; the viability, T/C (second compound 0.1 µM, first compound 0.1 µM) was 92.1%; the viability, T/C (second compound 0.1 µM, first compound 0.316 µM) is 70.8%; the viability, T/C (second compound 0.1 µM, first compound 1 µM) is 10.7%; the viability, T/C (second compound 0.1 µM, first compound 3.16 µM) was 0.21%; the viability, T/C (second compound 0.1 µM, first compound 10 µM) is 0.2%. Also, the viability, T/C is 112% (second compound 0.316 µM, first compound 0.0316 µM); 85.6% (second compound 0.316 µM, first compound 0.1 µM); 78.5% (second compound 0.316 µM, first compound 0.316 µM); 9.79% (second compound 0.316 µM, first compound 1 µM); 0.19% (second compound 0.316 µM, first compound 3.16 µM); 0.17% (second compound 0.316 µM, first compound 10 µM). For the same compound, the viability, T/C reads like this: (second compound 1 µM, first compound 0.0316 µM) 114%; (second compound 1 µM, first compound 0.1 µM) 88.8%; (second compound 1 µM, first compound 0.316 µM) 70.9%; (second compound 1 µM, first compound 1 µM) 12.5%; (second compound 1 µM, first compound 3.16 µM) 0.21%; (second compound 1 µM, first compound 10 µM) 0.2%. For the same compound, the viability, T/C reads like this: (second compound 3.16 µM, first compound 0.0316 µM) 91.2%; (second compound 3.16 µM, first compound 0.1 µM) 98.4%; (second compound 3.16 µM, first compound 0.316 µM) 84.5%; (second compound 3.16 µM, first compound 1 µM) 9.67%; (second compound 3.16 µM, first compound 3.16 µM) 0.25%; (second compound 3.16 µM, first compound 10 µM) 0.2%. Besides, the viability, T/C is, setting by setting: (second compound 10 µM, first compound 0.0316 µM) 83.2%; (second compound 10 µM, first compound 0.1 µM) 73.6%; (second compound 10 µM, first compound 0.316 µM) 57.7%; (second compound 10 µM, first compound 1 µM) 12.3%; (second compound 10 µM, first compound 3.16 µM) 0.25%; (second compound 10 µM, first compound 10 µM) 0.22%.

For the compound `COc1cccc2c1C(=O)c1c(O)c3c(c(O)c1C2=O)CC(O)(C(=O)CO)CC3OC1CC(N)C(O)C(C)O1` (stereo unspecified), the viability, T/C reads like this: (compound 0.0316 µM) 94.5% and 91.5% and 81.9%; (compound 0.1 µM) 59.7% and 68.6% and 56.4%; (compound 0.316 µM) 51.7% and 52.9% and 48.3%; (compound 1 µM) 16% and 16.9% and 15.1%; (compound 3.16 µM) 4.15% and 1.93% and 4.74%; (compound 10 µM) 0.3% and 0.31% and 0.43%. Besides, the pIC50 (curve of compound) was 6.67 and 6.55 and 6.71.

As for `Nc1ccn(C2OC(CO)C(O)C2(F)F)c(=O)n1` (stereo unspecified), the viability, T/C (compound 0.0316 µM) is 76.8% and 70.1% and 75.6%; the viability, T/C (compound 0.1 µM) was 16.7% and 16.1% and 15.4%; the viability, T/C (compound 0.316 µM) was 11.3% and 7.32% and 9.64%; the viability, T/C (compound 1 µM) is 10.3% and 9.3% and 8.42%; the viability, T/C (compound 3.16 µM) is 10.7% and 12.2% and 11.5%; the viability, T/C (compound 10 µM) was 13% and 12.5% and 11.1%. For the setting “curve of compound”, the negative-log IC50 (pIC50) is 7.28 and 7.32 and 7.29.
